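Five compound concentrations were applied to cells in 96-well plates for 48 hours; endpoints were derived by simple linear interpolation of the resulting dose-response curve. At the GI50, growth is halved. Definition used: TGI = concentration required for complete inhibition of growth.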
Experiments:
Assay in all cases: DTP human tumour cell line panel, 48 h
SK-OV-3 ovarian = system: SK-OV-3 ovarian
EKVX NSCLC = system: EKVX NSCLC
UACC-62 melanoma = system: UACC-62 melanoma
DLD-1 colon = system: DLD-1 colon
MOLT-4 leukemia = system: MOLT-4 leukemia
HCT-116 colon = system: HCT-116 colon
SNB-75 CNS = system: SNB-75 CNS
IGROV1 ovarian = system: IGROV1 ovarian
SK-MEL-28 melanoma = system: SK-MEL-28 melanoma
MDA-MB-435 = system: MDA-MB-435

Row | Compound | TGI (SK-OV-3 ovarian) [µM] | TGI (EKVX NSCLC) [µM] | TGI (UACC-62 melanoma) [µM] | TGI (DLD-1 colon) [µM] | TGI (MOLT-4 leukemia) [µM] | TGI (HCT-116 colon) [µM] | TGI (SNB-75 CNS) [µM] | TGI (IGROV1 ovarian) [µM] | TGI (SK-MEL-28 melanoma) [µM] | TGI (MDA-MB-435) [µM] | GI50 (SK-OV-3 ovarian) [µM] | GI50 (EKVX NSCLC) [µM] | GI50 (UACC-62 melanoma) [µM] | GI50 (DLD-1 colon) [µM] | GI50 (MOLT-4 leukemia) [µM] | GI50 (HCT-116 colon) [µM] | GI50 (SNB-75 CNS) [µM] | GI50 (SK-MEL-28 melanoma) [µM] | GI50 (IGROV1 ovarian) [µM]
1 | C1=C(c2ccccc2)SC(N2CCCCC2)S1 (configuration not stated) | > 100 | > 100 | > 100 | > 100 | > 100 | > 100 | > 100 | > 100 | – | – | – | – | – | – | – | – | – | – | –
2 | Cc1ccc(C)c(NC(=O)C(=O)C(C(=O)c2ccc3ccccc3c2)C2OC(=O)c3ccccc32)c1 (configuration not stated) | 48.9 | 51.1 | 27.8 | 64.3 | > 100 | 24.9 | 58.8 | 40.5 | 34.4 | – | – | – | – | – | – | – | – | – | –
3 | Cn1nc2ccc([N+](=O)[O-])c(Cn3nnc4ccccc43)c2n1 | > 100 | > 100 | > 100 | – | > 100 | > 100 | > 100 | > 100 | > 100 | > 100 | – | – | – | – | – | – | – | – | –
4 | CN(C)CC(O)c1ccc(Cl)c2ccccc12 (configuration not stated) | > 100 | > 100 | 34 | – | 55.8 | > 100 | > 89.1 | > 85.7 | 36.3 | 61.2 | – | – | – | – | – | – | – | – | –
5 | CC1=NNC(=O)C1C1C(=O)NN=C(c2c[nH]c3ccccc23)C1Br (configuration not stated) | > 100 | > 100 | > 100 | – | 80.3 | > 100 | 58.9 | > 100 | > 100 | > 100 | – | – | – | – | – | – | – | – | –
6 | O=C(Nc1ccc(N2C(=O)CSC2c2ccccc2O)cc1)c1ccc(N2C(=O)CSC2c2ccccc2O)cc1 (configuration not stated) | 62.3 | > 100 | 98.1 | – | > 100 | > 100 | 82.4 | > 100 | > 100 | > 100 | – | – | – | – | – | – | – | – | –
7 | COc1cc2c(c(O)c1O)C(=O)C1CCC(=O)N1C2c1cccc2ccccc12 (configuration not stated) | > 50 | > 50 | > 50 | – | > 50 | > 50 | > 50 | > 50 | > 50 | > 50 | – | – | – | – | – | – | – | – | –
8 | Oc1cc(Cc2ccccc2)c(Cc2ccccc2)cc1O | > 10 | > 10 | > 10 | – | > 10 | > 10 | > 10 | > 10 | > 10 | > 10 | – | – | – | – | – | – | – | – | –
9 | OC1[C@@H]2[C@@H](O)CCCN2C[C@@H](O)[C@H]1O (some centres not stated) | > 100 | > 100 | > 100 | – | > 100 | > 100 | > 100 | > 100 | > 100 | > 100 | – | – | – | – | – | – | – | – | –
10 | CCCCCOc1ccc(C=Nc2ccc(CCc3ccc(N=Cc4ccc(OCCCCC)cc4)cc3)cc2)cc1 | > 100 | > 100 | > 100 | > 100 | > 100 | > 100 | > 100 | > 100 | > 100 | – | – | – | – | – | – | – | – | – | –
11 | COc1ccc2c(c1)C(=O)CC1c3cnccc3C(=O)N21 (configuration not stated) | > 100 | > 100 | > 100 | – | > 100 | > 100 | > 100 | > 100 | > 100 | > 31.6 | – | – | – | – | – | – | – | – | –
12 | CC(C)/C(Cl)=N/OC(=O)Nc1ccc(Br)cc1 | 30.3 | 4.37 | 17 | – | 5.45 | 10.4 | 34.3 | 27.1 | 14.1 | 30.7 | – | – | – | – | – | – | – | – | –
13 | C#CCNC(CSSCC(N)C(=O)O)C(=O)O (configuration not stated) | > 100 | > 100 | > 100 | – | > 100 | > 100 | > 100 | > 100 | > 100 | > 100 | – | – | – | – | – | – | – | – | –
14 | C/C(CC(O)(C(F)(F)F)C(F)(F)F)=N\NC(N)=O | > 10 | > 10 | > 10 | – | > 10 | > 10 | > 10 | > 10 | > 10 | > 10 | – | – | – | – | – | – | – | – | –
15 | O=c1[nH]c(Nc2ccccc2)nc2c1ncn2CC(O)CSCCO (configuration not stated) | > 100 | > 100 | > 100 | – | > 100 | > 100 | > 100 | > 100 | > 100 | > 100 | – | – | – | – | – | – | – | – | –
16 | CC(C)(C)c1ccc(OCCOc2ccc(C(C)(C)C)cc2N)c(N)c1 | > 100 | > 100 | > 100 | – | > 100 | > 100 | > 100 | > 100 | > 100 | > 100 | – | – | – | – | – | – | – | – | –

Row | Compound | TGI (SK-OV-3 ovarian) [µM] | TGI (EKVX NSCLC) [µM] | TGI (UACC-62 melanoma) [µM] | TGI (DLD-1 colon) [µM] | TGI (MOLT-4 leukemia) [µM] | TGI (HCT-116 colon) [µM] | TGI (SNB-75 CNS) [µM] | TGI (IGROV1 ovarian) [µM] | TGI (SK-MEL-28 melanoma) [µM] | TGI (MDA-MB-435) [µM] | GI50 (SK-OV-3 ovarian) [µM] | GI50 (EKVX NSCLC) [µM] | GI50 (UACC-62 melanoma) [µM] | GI50 (DLD-1 colon) [µM] | GI50 (MOLT-4 leukemia) [µM] | GI50 (HCT-116 colon) [µM] | GI50 (SNB-75 CNS) [µM] | GI50 (SK-MEL-28 melanoma) [µM] | GI50 (IGROV1 ovarian) [µM]
17 | c1ccc(-c2csc3c4ccccc4c4ccccc4[n+]23)cc1 | 38.5 | 31.8 | 5.27 | 25.4 | > 25.5 | 12.1 | 6.98 | 31.3 | 7.96 | – | – | – | – | – | – | – | – | – | –
18 | COC(=O)C1(NC(=O)C(CC(=O)OCc2ccccc2)NC(=O)OCc2ccccc2)CCCCCC1 (configuration not stated) | 94.6 | > 100 | 34.3 | – | > 100 | > 100 | > 100 | > 100 | > 100 | 74.4 | – | – | – | – | – | – | – | – | –
19 | CC12CCC(CC(=O)/C1=C(/Br)I)C2(C)C (configuration not stated) | 45.4 | 36.6 | 30.4 | – | 23.9 | 24.9 | 31 | 31.4 | 30.4 | 28.6 | – | – | – | – | – | – | – | – | –
20 | C[C@@H]1OC(=O)C[C@H]2CC(=O)N(CCC3CN(C(=O)OCc4ccccc4)c4ccccc43)C[C@@H]21 (some centres not stated) | > 100 | > 100 | > 100 | – | > 100 | > 100 | > 100 | > 100 | > 100 | > 100 | – | – | – | – | – | – | – | – | –
21 | COc1ccc(N2CC(=O)N(C(=O)COc3ccc(OCC(=O)N4C(=O)CN(c5ccc(OC)cc5)C4=S)cc3)C2=S)cc1 | > 100 | > 100 | > 100 | – | > 100 | 63.3 | > 100 | > 100 | > 100 | > 100 | – | – | – | – | – | – | – | – | –
22 | CCOC(=O)C(C#N)(Cc1c[nH]c2ccccc12)NC(C)=O (configuration not stated) | > 100 | > 100 | > 100 | > 100 | > 100 | > 100 | > 100 | > 100 | > 100 | – | – | – | – | – | – | – | – | – | –
23 | CCOC(=O)c1ccc(-n2[nH]nc(C(N)=O)c2=O)cc1 | > 100 | > 100 | > 100 | – | > 100 | > 100 | > 100 | > 100 | > 100 | > 100 | – | – | – | – | – | – | – | – | –
24 | COC1CC(N)(c2ccccc2)C(O)C(C)O1 (configuration not stated) | > 100 | > 100 | > 100 | – | > 100 | > 100 | > 100 | > 100 | > 100 | > 100 | – | – | – | – | – | – | – | – | –
25 | O=c1[nH]cc(NCCCl)c(=O)[nH]1 | > 100 | > 100 | > 100 | – | > 100 | > 100 | > 100 | > 100 | > 100 | > 100 | – | – | – | – | – | – | – | – | –
26 | C[C@@]1(O)C2CC3CC1(c1ccccc1)CC(/C3=N/O)/C2=N\O (some centres not stated) | > 100 | > 100 | > 100 | – | > 100 | > 100 | > 100 | > 100 | > 100 | > 100 | – | – | – | – | – | – | – | – | –
27 | COc1cc(C2c3c(ccc4ccccc34)C(=O)C3CCC(=O)N32)cc(OC)c1OC (configuration not stated) | > 50 | > 50 | > 50 | – | > 50 | > 50 | > 50 | > 50 | > 50 | > 50 | – | – | – | – | – | – | – | – | –
28 | N#CN1C2CCC1CC(=O)C2 | > 100 | > 100 | > 100 | – | > 100 | > 100 | > 100 | > 100 | > 100 | > 100 | – | – | – | – | – | – | – | – | –
29 | Cc1ccc(C(=N)c2ccccc2Cc2cccc3ccccc23)c2ccccc12 | > 100 | > 100 | > 100 | – | > 100 | > 100 | > 100 | > 100 | > 100 | > 100 | – | – | – | – | – | – | – | – | –
30 | C[C@H](c1ccccc1)N1C(=O)[C@@H](O)[C@H]1[C@H](CO)OCc1ccccc1 | > 100 | > 100 | > 100 | – | > 100 | > 100 | > 100 | > 100 | > 100 | > 100 | – | – | – | – | – | – | – | – | –
31 | Cc1cc([NH-])c([NH-])cc1C.[Cl][Pt+2][Cl] | > 100 | 46.7 | 27.3 | 28.9 | 41.6 | 32.9 | > 100 | 45.4 | 39.5 | – | > 96.8 | 19.7 | 8.88 | 8 | 5.07 | 14.2 | 39.2 | 16.7 | 15.2

From PubChem BioAssay (NCI)
